Assay results taken from publication PMC9785441, “A Broad Spectrum Antiparasitic Activity of Organotin (IV) Derivatives and Its Untargeted Proteomic Profiling Using Leishmania donovani” (Pathogens, 2022).
“Also recorded” adds a separate entry of the source.

Experiments:
[1] = Cytotoxicity to B10R host cells (nuclei count in the amastigote assay); format: cell-based; conditions: mouse, B10R monocyte cells co-cultured with L. donovani parasites
Method: For the intracellular amastigote stage assay, L. donovani was incubated at a density of 1 × 10^6 parasites/mL for six days at 29 °C before infection to enrich the proportion of metacyclic promastigotes. B10R monocyte cell lines were cultured in RPMI supplemented with 10% FBS and 1%penicillin/streptomycin at 37 °C in 5% CO2. After 72 h, cells were counted with a hemocytometer and mixed with the six-day-old parasites. […] Plates were incubated at 37 °C and 5% CO2 for 72 h. Cultures were then fixed with 4% formaldehyde solution for 30 min and stained with 0.5 µg/mL DAPI (diamidino-2-phenylindole). Plates were then imaged using an ImageXpress Micro XLS automated high content imager (Molecular Devices, San Jose, CA, USA) using a 10× air objective. A custom image analysis module generated in ImageXpress was used to count the nuclei of host and parasite cells. EC50 values were obtained using the GraphPad Prism 9 Software with biological triplicates.

[2] = test system: E. histolytica HM1:IMSS trophozoites; experiment: E. histolytica trophozoite viability assay (CellTiter-Glo); format: cell-based, Entamoeba histolytica; conditions: 48 h
Method: Trophozoites of E. histolytica HM1:IMSS were maintained in vitro as described in TYI-S-33 medium supplemented with penicillin (100 U/mL) and streptomycin (100 µg/mL). Test compounds were serially diluted and transferred to a white solid bottomed 96-well tissue culture plate (E&K Scientific, Swedesboro, NJ, USA) followed by addition of 5000 E. histolytica trophozoites per well for a final volume of 100 µL TYI-S-33 medium and a final concentration of compounds ranging from 50 to 0.39 µM. Metronidazole were used as positive control and assay plates were incubated for 48 h at 37 °C. The plates maintained kept anaerobically using the GasPak EZ Anaerobic Gas Generating Pouch System (VWR). Parasite viability was measured in triplicate using the CellTiter-Glo luminescence kit (Promega G9243) in an Envision plate reader (Perkin Elmer, Waltham, MA, USA). EC50 values were obtained using GraphPad Prism 9 Software.

[3] = HEK293 cytotoxicity assay (resazurin); format: cell-based; conditions: HEK-293T cells, human embryonic kidney cells, max 4 µM, read-out: CC50 HEK923
Method: HEK-293T cells were cultured in DMEM (Gibco) supplemented with 10% heat inactivated FBS (Corning) and 1% penicillin-streptomycin (Gibco). Cells were maintained in vented T75 cell culture flasks (Thermo Scientific, Cat. 12-565-349) at 37 °C and 5% CO2, and were passaged every 72 h. […] Compounds were diluted with fresh DMEM (49 µL/well). HEK-293 cells were suspended at 4 × 10^5 cells/mL in DMEM and added to each well (50 µL/well) to give 2 × 10^4 cells/well. Assay plates were incubated at 37 °C and 5% CO2 for 48 h, followed by addition of 20 µL of 0.5 mM resazurin (Alfa Aesar, Cat. B21187) in PBS to each well. […] In each assay plate, cell viability was normalized relative to positive and negative controls. Assays were performed in biological and technical duplicates, and dose–response and CC50 data were generated with GraphPad Prism 5 using a sigmoidal four parameter logistic curve.

[4] = test system: L. donovani-infected B10R cells; experiment: Untargeted proteomics of L. donovani-infected B10R cells treated and untreated with MS26Et3; format: cell-based, mouse / Leishmania donovani; conditions: L. donovani-infected B10R cells exposed to compound vs not exposed
Method: B10R culture cells (infected or uninfected with Leishmanaia donovani) were collected and washed twice in cold PBS. The cell pellets (~10^6 cells/pellet) were snap-frozen and stored at −80 °C. To extract the proteins, pellets were thawed, and the cells were resuspended in 200 µL buffer containing 6 M urea, 7% SDS, 50 mM TEAB, protease inhibitor cocktail (Roche, cat. no. A32963), phosphatase inhibitor (Roche, cat. no. A32957), with pH adjusted to 8.1 with phosphoric acid. The cells were then lysed using a sonicating probe 200 µL. The samples were reduced in 500 mM DTT at 47 °C for 30 min and alkylated in 500 mM IAA in the absence of light, at room temperature for 45 min, followed by quenching in 500 mM DTT for 5 min. The samples were then acidified with 12% phosphoric acid and mixed in a 7:1 ratio with binding buffer containing 90% methanol, 50 mM TEAB, pH 7.1, adjusted with phosphoric acid and loaded on to S-Trap columns (Protifi). […] The concentration of desalted peptides was determined and 50 µg aliquots of each sample were dried in a speed vacuum concentrator. […]
Basic pH reverse-phase LC and data acquisition through LC–MS2/MS3 were performed as previously described. […] Fractions were then analyzed using tandem mass spectrometry (MS2/MS3) on an Orbitrap Fusion mass spectrometer (ThermoFisher, Waltham, MA, USA) with an in-line EASY-nLC 1000 instrument (ThermoFisher, Waltham, MA, USA). […]

| EC50 ([2]; Entamoeba histolytica) | Compound | CC50 at 72 h [1] | CC50 at 48 h [3] | EC50 [2] | Rab7 expression / abundance [4] |
| --- | --- | --- | --- | --- | --- |
| > 10 µM | COc1ccc(NC(=O)CCC(=O)O)cc1 [MS26, 4-(4-methoxyphenylamino)-4 oxobutanoic acid] | 2.38 µM | > 4 µM | – | – |
| – | CCC[CH2][Sn]([CH2]CCC)([CH2]CCC)[O]C(=O)CCC(=O)Nc1ccc(OC)cc1 [MS26Bu3] | – | – | 8.7 µM | – |
| – | C[CH2][Sn]([CH2]C)([CH2]C)[O]C(=O)CCC(=O)Nc1ccc(OC)cc1 [MS26Et3] | – | – | 5.6 µM | reduced expression; also recorded: differentially expressed; also recorded: decreased in abundance |
